Activity calls are given as the source filed them. No cut-off for these calls is given here. Numbered stars: 1 amine (or outer) side, 2 acyl side, 3 side chain; on linkers, the order of the positions; unused ones are H or OH. Bridge positions count the residues as written; N and C are the ends. Square brackets hold non-standard residues; d marks the D form. Peptide text beside a SMILES is read from it. * marks the point of attachment. pTerphenylCO(4''-OnC5H11) = CCCCCOc1ccc(-c2ccc(-c3ccc(C(=O)*)cc3)cc2)cc1; Orn(4R-OH,5R-OH) = O=C([C@H](C[C@@H](O)[C@@H](O)N[*:3])N[*:1])[*:2]; hTyr(3S-OH,4S-OH) = N[C@H](C(=O)O)[C@H](O)[C@@H](O)c1ccc(O)cc1; Pro(3S-OH,4S-Me) = C[C@H]1CN[C@H](C(=O)O)[C@H]1O; Hyp = O=C(O)[C@@H]1C[C@@H](O)CN1
Assays:
Aspergillus terreus [1] = assay: Antifungal activity against germinated Aspergillus terreus assessed as absence of visual fungal growth at 64 ug/mL; format: functional, organism-based
Aspergillus flavus [2] = assay: Increase in metabolic activity of germinated Aspergillus flavus assessed as elongation of short, stubby aberrant hyphae at 16 ug/mL after 48 hrs by XTT assay; format: functional, organism-based
Aspergillus fumigatus [3] = assay: Antifungal activity against nongerminated Aspergillus fumigatus assessed as absence of visual fungal growth at 64 ug/mL; format: functional, organism-based
Aspergillus flavus [4] = assay: Ratio of log2 of MEC for germinated Aspergillus flavus to log2 of MEC for nongerminated Aspergillus flavus; format: functional
Aspergillus terreus [5] = assay: Effect on nongerminated Aspergillus terreus metabolic activity assessed as drug concentration at which fungal metabolic activity occurs after 2 hrs by XTT assay; format: functional
Aspergillus flavus [6] = assay: Induction of maximal metabolic inhibition in nongerminated Aspergillus flavus assessed as minimal metabolic activity Ymin after 2 hrs by XTT assay; format: functional; design: scale not given: the % may be the effect or the level left
Aspergillus fumigatus [7] = assay: Antifungal activity against germinated Aspergillus fumigatus assessed as lowest drug concentration that produced short, stubby and highly branched hyphae after 48 hrs by microscopic analysis; format: functional; details: read-out: MEC
Aspergillus flavus [8] = assay: Antifungal activity against nongerminated Aspergillus flavus assessed as absence of visual fungal growth at 64 ug/mL; format: functional, organism-based
Aspergillus fumigatus [9] = assay: Antifungal activity against nongerminated Aspergillus fumigatus assessed as absence of visual fungal growth at 128 ug/mL; format: functional, organism-based
Aspergillus terreus [10] = assay: Ratio of log2 of MEC for germinated Aspergillus terreus to log2 of MEC for nongerminated Aspergillus terreus; format: functional
Aspergillus fumigatus [11] = assay: Increase in metabolic activity of germinated Aspergillus fumigatus assessed as elongation of short, stubby aberrant hyphae at 16 ug/mL after 48 hrs by XTT assay; format: functional, organism-based
Aspergillus flavus [12] = assay: Increase in metabolic activity of germinated Aspergillus flavus assessed as formation of short, stubby aberrant hyphae at 0.03 ug/mL after 48 hrs by XTT assay; format: functional, organism-based
Aspergillus terreus [13] = assay: Induction of maximal metabolic inhibition in germinated Aspergillus terreus assessed as minimal metabolic activity Ymin after 2 hrs by XTT assay; format: functional; design: scale not given: the % may be the effect or the level left
Aspergillus terreus [14] = assay: Increase in metabolic activity of nongerminated Aspergillus terreus assessed as elongation of short, stubby aberrant hyphae at 16 ug/mL after 48 hrs by XTT assay; format: functional, organism-based
Aspergillus flavus [15] = assay: Antifungal activity against germinated Aspergillus flavus assessed as lowest drug concentration that produced short, stubby and highly branched hyphae after 48 hrs by microscopic analysis; format: functional; details: read-out: MEC
Aspergillus terreus [16] = assay: Increase in metabolic activity of germinated Aspergillus terreus assessed as elongation of short, stubby aberrant hyphae at 2 ug/mL after 48 hrs by XTT assay; format: functional, organism-based
Aspergillus fumigatus [17] = assay: Antifungal activity against germinated Aspergillus fumigatus assessed as absence of visual fungal growth at 64 ug/mL; format: functional, organism-based
Aspergillus flavus [18] = assay: Increase in metabolic activity of nongerminated Aspergillus flavus assessed as elongation of short, stubby aberrant hyphae at 16 ug/mL after 48 hrs by XTT assay; format: functional, organism-based
Aspergillus flavus [19] = assay: Antifungal activity against nongerminated Aspergillus flavus assessed as absence of visual fungal growth at 128 ug/mL; format: functional, organism-based
Aspergillus terreus [20] = assay: Induction of maximal metabolic inhibition in nongerminated Aspergillus terreus assessed as minimal metabolic activity Ymin after 2 hrs by XTT assay; format: functional; design: scale not given: the % may be the effect or the level left
Aspergillus flavus [21] = assay: Effect on Aspergillus flavus metabolic activity assessed number of twofold drug dilutions required for germinated fungal metabolic activity to nongerminated fungal metabolic activity; format: functional
Aspergillus flavus [22] = assay: Increase in metabolic activity of nongerminated Aspergillus flavus assessed as formation of short, stubby aberrant hyphae at 0.03 ug/mL after 48 hrs by XTT assay; format: functional, organism-based
Aspergillus fumigatus [23] = assay: Ratio of log2 of MEC for germinated Aspergillus fumigatus to log2 of MEC for nongerminated Aspergillus fumigatus; format: functional
Aspergillus fumigatus [24] = assay: Effect on Aspergillus fumigatus metabolic activity assessed number of twofold drug dilutions required for germinated fungal metabolic activity to nongerminated fungal metabolic activity; format: functional
Aspergillus flavus [25] = assay: Antifungal activity against germinated Aspergillus flavus assessed as absence of visual fungal growth at 128 ug/mL; format: functional, organism-based
Aspergillus flavus [26] = assay: Induction of maximal metabolic inhibition in germinated Aspergillus flavus assessed as minimal metabolic activity Ymin after 2 hrs by XTT assay; format: functional; design: scale not given: the % may be the effect or the level left
Aspergillus fumigatus [27] = assay: Increase in metabolic activity of nongerminated Aspergillus fumigatus assessed as formation of short, stubby aberrant hyphae at 0.03 ug/mL after 48 hrs by XTT assay; format: functional, organism-based
Aspergillus terreus [28] = assay: Effect on Aspergillus terreus metabolic activity assessed number of twofold drug dilutions required for germinated fungal metabolic activity to nongerminated fungal metabolic activity; format: functional
Aspergillus flavus [29] = assay: Antifungal activity against germinated Aspergillus flavus assessed as absence of visual fungal growth at 64 ug/mL; format: functional, organism-based
Aspergillus fumigatus [30] = assay: Effect on germinated Aspergillus fumigatus metabolic activity assessed as drug concentration at which fungal metabolic activity occurs after 2 hrs by XTT assay; format: functional
Aspergillus terreus [31] = assay: Increase in metabolic activity of nongerminated Aspergillus terreus assessed as formation of short, stubby aberrant hyphae at 0.03 ug/mL after 48 hrs by XTT assay; format: functional, organism-based
Aspergillus fumigatus [32] = assay: Increase in metabolic activity of nongerminated Aspergillus fumigatus assessed as elongation of short, stubby aberrant hyphae at 2 ug/mL after 48 hrs by XTT assay; format: functional, organism-based
Aspergillus fumigatus [33] = assay: Increase in metabolic activity of germinated Aspergillus fumigatus assessed as formation of short, stubby aberrant hyphae at 0.03 ug/mL after 48 hrs by XTT assay; format: functional, organism-based
Aspergillus terreus [34] = assay: Antifungal activity against germinated Aspergillus terreus assessed as lowest drug concentration that produced short, stubby and highly branched hyphae after 48 hrs by microscopic analysis; format: functional; details: read-out: MEC
Aspergillus fumigatus [35] = assay: Increase in metabolic activity of germinated Aspergillus fumigatus assessed as elongation of short, stubby aberrant hyphae at 2 ug/mL after 48 hrs by XTT assay; format: functional, organism-based
Aspergillus fumigatus [36] = assay: Increase in metabolic activity of nongerminated Aspergillus fumigatus elongation of short, stubby aberrant hyphae at 16 ug/mL after 48 hrs by XTT assay; format: functional, organism-based
Aspergillus terreus [37] = assay: Effect on germinated Aspergillus terreus metabolic activity assessed as drug concentration at which fungal metabolic activity occurs after 2 hrs by XTT assay; format: functional
Aspergillus fumigatus [38] = assay: Induction of maximal metabolic inhibition in germinated Aspergillus fumigatus assessed as minimal metabolic activity Ymin after 2 hrs by XTT assay; format: functional; design: scale not given: the % may be the effect or the level left
Aspergillus terreus [39] = assay: Antifungal activity against nongerminated Aspergillus terreus assessed as absence of visual fungal growth at 64 ug/mL; format: functional, organism-based
Aspergillus flavus [40] = assay: Effect on germinated Aspergillus flavus metabolic activity assessed as drug concentration at which fungal metabolic activity occurs after 2 hrs by XTT assay; format: functional
Aspergillus flavus [41] = assay: Increase in metabolic activity of germinated Aspergillus flavus assessed as elongation of short, stubby aberrant hyphae at 2 ug/mL after 48 hrs by XTT assay; format: functional, organism-based
Aspergillus terreus [42] = assay: Antifungal activity against nongerminated Aspergillus terreus assessed as absence of visual fungal growth at 128 ug/mL; format: functional, organism-based
Aspergillus terreus [43] = assay: Increase in metabolic activity of germinated Aspergillus terreus assessed as elongation of short, stubby aberrant hyphae at 16 ug/mL after 48 hrs by XTT assay; format: functional, organism-based
Aspergillus terreus [44] = assay: Increase in metabolic activity of nongerminated Aspergillus terreus assessed as elongation of short, stubby aberrant hyphae at 2 ug/mL after 48 hrs by XTT assay; format: functional, organism-based
Aspergillus terreus [45] = assay: Antifungal activity against germinated Aspergillus terreus assessed as absence of visual fungal growth at 128 ug/mL; format: functional, organism-based
Aspergillus fumigatus [46] = assay: Antifungal activity against nongerminated Aspergillus fumigatus assessed as lowest drug concentration that produced short, stubby and highly branched hyphae after 48 hrs by microscopic analysis; format: functional; details: read-out: MEC
Aspergillus fumigatus [47] = assay: Induction of maximal metabolic inhibition in nongerminated Aspergillus fumigatus assessed as minimal metabolic activity Ymin after 2 hrs by XTT assay; format: functional; design: scale not given: the % may be the effect or the level left
Aspergillus terreus [48] = assay: Antifungal activity against nongerminated Aspergillus terreus assessed as lowest drug concentration that produced short, stubby and highly branched hyphae after 48 hrs by microscopic analysis; format: functional; details: read-out: MEC
Aspergillus flavus [49] = assay: Antifungal activity against nongerminated Aspergillus flavus assessed as lowest drug concentration that produced short, stubby and highly branched hyphae after 48 hrs by microscopic analysis; format: functional; details: read-out: MEC
Aspergillus fumigatus [50] = assay: Effect on nongerminated Aspergillus fumigatus metabolic activity assessed as drug concentration at which fungal metabolic activity occurs after 2 hrs by XTT assay; format: functional
Aspergillus fumigatus [51] = assay: Antifungal activity against germinated Aspergillus fumigatus assessed as absence of visual fungal growth at 128 ug/mL; format: functional, organism-based
Aspergillus terreus [52] = assay: Increase in metabolic activity of germinated Aspergillus terreus assessed as formation of short, stubby aberrant hyphae at 0.03 ug/mL after 48 hrs by XTT assay; format: functional, organism-based
Aspergillus flavus [53] = assay: Increase in metabolic activity of nongerminated Aspergillus flavus assessed as elongation of short, stubby aberrant hyphae at 2 ug/mL after 48 hrs by XTT assay; format: functional, organism-based
Aspergillus flavus [54] = assay: Effect on nongerminated Aspergillus flavus metabolic activity assessed as drug concentration at which fungal metabolic activity occurs after 2 hrs by XTT assay; format: functional

With `CCCCCOc1ccc(-c2ccc(-c3ccc(C(=O)N[C@H]4C[C@@H](O)[C@@H](O)NC(=O)[C@@H]5[C@@H](O)[C@@H](C)CN5C(=O)[C@H]([C@@H](C)O)NC(=O)[C@H]([C@H](O)[C@@H](O)c5ccc(O)cc5)NC(=O)[C@@H]5C[C@@H](O)CN5C(=O)[C@H]([C@@H](C)O)NC4=O)cc3)cc2)cc1` [ANIDULAFUNGIN] ({pTerphenylCO(4''-OnC5H11)}-[Orn(4R-OH,5R-OH)]T[Hyp][hTyr(3S-OH,4S-OH)]T[Pro(3S-OH,4S-Me)]; lactam 1-C) the Activity (Aspergillus terreus [1]) was “inactive”, the Activity (Aspergillus flavus [2]) was “Active” and the Activity (Aspergillus fumigatus [3]) was “inactive”. It also gave a Ratio (Aspergillus flavus [4]) of 2.5, an EC5 (Aspergillus terreus [5]) of 0.01 µg/mL and an Activity (Aspergillus flavus [6]) of 16%. The minimal effective concentration (Aspergillus fumigatus [7]) was 0.12 µg/mL, the Activity (Aspergillus flavus [8]) was “inactive” and the Activity (Aspergillus fumigatus [9]) was “inactive”. The Ratio (Aspergillus terreus [10]) was 3, the Activity (Aspergillus fumigatus [11]) was “Active” and the Activity (Aspergillus flavus [12]) was “Active”. For the same compound, the Activity (Aspergillus terreus [13]) was 44%, the Activity (Aspergillus terreus [14]) was “Active” and the minimal effective concentration (Aspergillus flavus [15]) was 0.25 µg/mL. For the same compound, the Activity (Aspergillus terreus [16]) was “Active”, the Activity (Aspergillus fumigatus [17]) was “inactive” and the Activity (Aspergillus flavus [18]) was “Active”. The Activity (Aspergillus flavus [19]) was “inactive”, the Activity (Aspergillus terreus [20]) was 30% and the Ratio (Aspergillus flavus [21]) was 2.96. For the same compound, the Activity (Aspergillus flavus [22]) was “Active”, the Ratio (Aspergillus fumigatus [23]) was 2 and the Ratio (Aspergillus fumigatus [24]) was 2.4. For the same compound, the Activity (Aspergillus flavus [25]) was “inactive”, the Activity (Aspergillus flavus [26]) was 16% and the Activity (Aspergillus fumigatus [27]) was “Active”. The Ratio (Aspergillus terreus [28]) was 2.97, the Activity (Aspergillus flavus [29]) was “inactive” and the EC5 (Aspergillus fumigatus [30]) was 0.11 µg/mL. For the same compound, the Activity (Aspergillus terreus [31]) was “Active”, the Activity (Aspergillus fumigatus [32]) was “Active” and the Activity (Aspergillus fumigatus [33]) was “Active”. The minimal effective concentration (Aspergillus terreus [34]) was 0.25 µg/mL, the Activity (Aspergillus fumigatus [35]) was “Active” and the Activity (Aspergillus fumigatus [36]) was “Active”. The EC5 (Aspergillus terreus [37]) was 0.1 µg/mL, the Activity (Aspergillus fumigatus [38]) was 36% and the Activity (Aspergillus terreus [39]) was “inactive”. The EC5 (Aspergillus flavus [40]) was 0.09 µg/mL, the Activity (Aspergillus flavus [41]) was “Active” and the Activity (Aspergillus terreus [42]) was “inactive”. The Activity (Aspergillus terreus [43]) was “Active”, the Activity (Aspergillus terreus [44]) was “Active” and the Activity (Aspergillus terreus [45]) was “inactive”. It also gave a minimal effective concentration (Aspergillus fumigatus [46]) of 0.03 µg/mL, an Activity (Aspergillus fumigatus [47]) of 26% and a minimal effective concentration (Aspergillus terreus [48]) of 0.03 µg/mL. The minimal effective concentration (Aspergillus flavus [49]) was 0.03 µg/mL, the EC5 (Aspergillus fumigatus [50]) was 0.03 µg/mL and the Activity (Aspergillus fumigatus [51]) was “inactive”. The Activity (Aspergillus terreus [52]) was “Active”, the Activity (Aspergillus flavus [53]) was “Active” and the EC5 (Aspergillus flavus [54]) was 0.01 µg/mL.

Source: ChEMBL document CHEMBL1153552, “Comparative in vitro pharmacodynamics of caspofungin, micafungin, and anidulafungin against germinated and nongerminated Aspergillus conidia” (2008)
